Reference: US20250099434A1, “METHODS OF TREATING AMYLOID RELATED BRAIN DISORDERS USING NOVEL COMPOUNDS AND ANTIBODIES” (T3D Therapeutics, Inc., priority 2022, published 2025)
“And” between values parts separate entries of the source, which are not always exact repeats. Equal values may be shown once. Read-outs that look alike come from different tables or passages of the source.

Legend:
human PPARγ = target: T1, human PPARγ (Homo sapiens, UniProt P37231); experiment: Human PPAR activation, transient transfection in CV-1 cells (gamma subtype); format: cell-based
T1 construct: expressed in transfected cells; host or cells: CV-1 cells
T1 sequence (P37231 1-505): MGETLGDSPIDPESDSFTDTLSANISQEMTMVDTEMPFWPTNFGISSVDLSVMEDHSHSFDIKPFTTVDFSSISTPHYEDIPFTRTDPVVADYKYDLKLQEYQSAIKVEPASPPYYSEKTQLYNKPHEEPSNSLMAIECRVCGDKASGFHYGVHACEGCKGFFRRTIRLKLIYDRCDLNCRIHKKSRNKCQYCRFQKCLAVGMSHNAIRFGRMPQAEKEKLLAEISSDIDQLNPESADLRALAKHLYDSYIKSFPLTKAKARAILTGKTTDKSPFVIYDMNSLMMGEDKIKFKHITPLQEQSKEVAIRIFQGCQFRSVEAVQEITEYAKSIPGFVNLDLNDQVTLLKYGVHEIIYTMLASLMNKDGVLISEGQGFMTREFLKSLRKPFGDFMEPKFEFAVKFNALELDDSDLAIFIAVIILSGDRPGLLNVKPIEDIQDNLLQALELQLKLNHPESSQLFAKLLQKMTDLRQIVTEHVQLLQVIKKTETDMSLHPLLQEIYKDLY
From the text: PPAR receptor agonist activity may be determined by conventional screening methods known to the skilled in the art. For example, methods described in U.S. Patent Application Publication No. 2007/0054907, 2008/0262047 and U.S. Pat. No. 7,314,879, which are incorporated by reference in their entireties.
The table summarize the results of studies performed in transfected CV-1 cells with three different lots of Compound of Example 11. […].

human PPARδ = target: T2, human PPARδ (Homo sapiens, UniProt Q03181); experiment: Human PPAR activation, transient transfection in CV-1 cells (δ subtype); format: cell-based
T2 construct: expressed in transfected cells; host or cells: CV-1 cells
T2 sequence (Q03181 1-441): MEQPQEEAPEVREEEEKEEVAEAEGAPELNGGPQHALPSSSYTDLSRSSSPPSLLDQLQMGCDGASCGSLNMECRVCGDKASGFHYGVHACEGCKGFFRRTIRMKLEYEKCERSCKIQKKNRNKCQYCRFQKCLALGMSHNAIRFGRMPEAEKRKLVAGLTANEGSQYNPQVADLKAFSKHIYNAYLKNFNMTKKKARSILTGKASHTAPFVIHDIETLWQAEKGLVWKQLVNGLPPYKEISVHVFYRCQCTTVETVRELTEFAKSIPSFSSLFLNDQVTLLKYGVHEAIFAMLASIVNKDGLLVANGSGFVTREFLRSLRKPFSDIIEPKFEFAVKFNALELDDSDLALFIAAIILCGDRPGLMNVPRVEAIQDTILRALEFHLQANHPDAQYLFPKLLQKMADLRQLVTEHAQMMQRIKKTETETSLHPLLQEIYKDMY

[1] = system: glucose metabolism in the brain
P-glycoprotein (P-gp) = P-glycoprotein (P-gp) (Homo sapiens, UniProt P08183); experiment: P-gp substrate assessment (Caco-2, verapamil)
P-glycoprotein (P-gp), sequence (P08183 whole entry): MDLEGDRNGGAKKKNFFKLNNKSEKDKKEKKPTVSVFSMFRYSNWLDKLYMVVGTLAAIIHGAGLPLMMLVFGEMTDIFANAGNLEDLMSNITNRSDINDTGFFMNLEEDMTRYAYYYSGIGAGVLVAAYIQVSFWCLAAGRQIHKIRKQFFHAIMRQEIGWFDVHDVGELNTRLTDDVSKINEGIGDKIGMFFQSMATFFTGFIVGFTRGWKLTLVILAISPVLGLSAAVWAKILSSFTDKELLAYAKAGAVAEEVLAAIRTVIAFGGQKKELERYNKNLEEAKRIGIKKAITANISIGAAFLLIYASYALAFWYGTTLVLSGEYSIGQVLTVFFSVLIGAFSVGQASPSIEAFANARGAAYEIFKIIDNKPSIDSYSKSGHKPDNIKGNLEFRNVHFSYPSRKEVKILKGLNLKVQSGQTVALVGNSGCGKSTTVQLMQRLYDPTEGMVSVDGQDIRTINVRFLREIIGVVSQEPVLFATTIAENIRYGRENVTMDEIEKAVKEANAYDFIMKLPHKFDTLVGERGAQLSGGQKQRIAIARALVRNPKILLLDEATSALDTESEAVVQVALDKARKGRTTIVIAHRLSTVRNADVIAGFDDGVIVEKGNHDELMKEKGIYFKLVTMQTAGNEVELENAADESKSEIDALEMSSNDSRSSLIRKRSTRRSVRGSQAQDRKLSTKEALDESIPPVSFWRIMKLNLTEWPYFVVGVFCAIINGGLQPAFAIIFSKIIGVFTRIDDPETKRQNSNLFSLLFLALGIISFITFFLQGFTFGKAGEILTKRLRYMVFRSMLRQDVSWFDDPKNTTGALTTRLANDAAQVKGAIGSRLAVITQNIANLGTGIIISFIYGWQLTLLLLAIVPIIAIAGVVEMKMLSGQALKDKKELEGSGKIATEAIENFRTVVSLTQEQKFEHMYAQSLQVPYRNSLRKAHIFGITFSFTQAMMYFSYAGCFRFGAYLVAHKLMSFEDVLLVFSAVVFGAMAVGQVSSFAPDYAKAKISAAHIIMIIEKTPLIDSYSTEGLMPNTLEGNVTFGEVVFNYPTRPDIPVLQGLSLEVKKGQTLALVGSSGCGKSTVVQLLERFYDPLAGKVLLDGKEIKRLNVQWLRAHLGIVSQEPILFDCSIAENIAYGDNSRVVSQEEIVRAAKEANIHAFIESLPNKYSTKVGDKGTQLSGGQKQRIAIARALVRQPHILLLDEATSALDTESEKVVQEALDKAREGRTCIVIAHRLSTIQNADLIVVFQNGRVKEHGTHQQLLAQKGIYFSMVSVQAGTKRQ

Caco-2 = Caco-2 permeability with and without P-gp inhibitor verapamil; conditions: absence of a P-gp inhibitor
[2] = time point 1.0, individual rats
[3] = time point 3.0, individual rats
[4] = time point 5.0, individual rats
[5] = time point 7.0, individual rats
[6] = time point 12.0, individual rats
[7] = 3 mg, White Matter as Reference Region
[8] = 3 mg, Whole Brain as Reference Region
[9] = 10 mg, White Matter as Reference Region
[10] = 10 mg, Whole Brain as Reference Region
[11] = 30 mg, White Matter as Reference Region
[12] = 30 mg, Whole Brain as Reference Region
[13] = 90 mg, White Matter as Reference Region
[14] = 90 mg, Whole Brain as Reference Region

Question: Which “Peak effect PPARγ” value (human PPARγ) does the source give for `CCc1oc(-c2ccc(OC)cc2)nc1CCOc1ccc2c(c1)CC[C@H]2CC(=O)[O-].[Na+]` [Example 11, Sodium (S)-2-(5-(2-(5-ethyl-2-(4-methoxyphenyl)oxazol-4-yl)ethoxy)-2,3-dihydro-1H-inden-1-yl)acetate] here?
Answer: The value was 29.49.

Question: What about the “Peak effect PPARδ” value (human PPARδ) of the same compound?
Answer: The value was 17.68.

Question: What about the “greater potency in activating human PPARδ subtype over human PPARγ subtype” value (human PPARδ) of the same compound?
Answer: The value was 15 fold.

Question: What about the “B/P Ratio” value [2] of the same compound?
Answer: Its value is 0.22 and 0.36 and 0.51.

Question: And the “Brain Tissue Cone.” value [2]?
Answer: The value was 226 ng/g and 161 ng/g and 101 ng/g.

Question: And the “Average (B/P Ratio)” value (time point 1.0, three rats)?
Answer: Its value is 0.361.

Question: And the “B/P Ratio” value [3]?
Answer: Its value is 0.26 and 0.21 and 0.19.

Question: And the “Brain Tissue Cone.” value [3]?
Answer: The value was 234 ng/g and 269 ng/g and 274 ng/g.

Question: And the “Plasma Conc.” value [3]?
Answer: Its value is 1270 ng/mL and 1430 ng/mL.

Question: What about the “Average (B/P Ratio)” value (time point 3.0, three rats) of the same compound?
Answer: Its value is 0.220.

Question: And the “B/P Ratio” value [4]?
Answer: The value was 0.17 and 0.18 and 0.16.

Question: What about the “Brain Tissue Cone.” value [4] of the same compound?
Answer: The value was 208 ng/g and 247 ng/g and 333 ng/g.

Question: What about the “Plasma Conc.” value [4] of the same compound?
Answer: The value was 1260 ng/mL and 1340 ng/mL and 2040 ng/mL.

Question: What about the “Average (B/P Ratio)” value (time point 5.0, three rats) of the same compound?
Answer: Its value is 0.171.

Question: And the “B/P Ratio” value [5]?
Answer: Its value is 0.16 and 0.35 and 0.47.

Question: What about the “Brain Tissue Cone.” value [5] of the same compound?
Answer: Its value is 203 ng/g and 216 ng/g.

Question: And the “Average (B/P Ratio)” value (time point 7.0, three rats)?
Answer: The value was 0.328.

Question: And the “B/P Ratio” value [6]?
Answer: Its value is 0.30 and 0.44 and 0.31.

Question: What about the “Brain Tissue Cone.” value [6] of the same compound?
Answer: Its value is 104 ng/g and 114 ng/g and 117 ng/g.

Question: And the “Plasma Conc.” value [6]?
Answer: The value was 345 ng/mL and 259 ng/mL and 377 ng/mL.

Question: What about the “Average (B/P Ratio)” value (time point 12.0, three rats) of the same compound?
Answer: Its value is 0.350.

Question: And the “Δ R CMRgI (EOT-BL) Sensory Motor Cortex Left, Ave” value [1, 7]?
Answer: The value was −0.0005.

Question: And the “Δ R CMRgI (EOT-BL) Sensory Motor Cortex Right, Ave” value [1, 7]?
Answer: Its value is −0.0151.

Question: And the “Δ R CMRgI (EOT-BL) Visual Cortex Left, Ave” value [1, 7]?
Answer: The value was −0.0219.

Question: What about the “Δ R CMRgI (EOT-BL) Visual Cortex Right, Ave” value [1, 7] of the same compound?
Answer: The value was −0.0272.

Question: What about the “Δ R CMRgI (EOT-BL) Sensory Motor Cortex Left, Ave” value [1, 8] of the same compound?
Answer: Its value is 0.0152.

Question: What about the “Δ R CMRgI (EOT-BL) Sensory Motor Cortex Right, Ave” value [1, 8] of the same compound?
Answer: Its value is −0.0037.

Question: And the “Δ R CMRgI (EOT-BL) Visual Cortex Left, Ave” value [1, 8]?
Answer: The value was −0.0196.

Question: What about the “Δ R CMRgI (EOT-BL) Visual Cortex Right, Ave” value [1, 8] of the same compound?
Answer: Its value is −0.0269.

Question: And the “spatial extent of ROSDs with positive ΔR CMRgl (EOT-BL) relative to Whole Brain” value ([1]; 10 mg)?
Answer: Its value is 70 voxels.

Question: What about the “Δ R CMRgI (EOT-BL) Sensory Motor Cortex Left, Ave” value [1, 9] of the same compound?
Answer: The value was 0.0005.

Question: And the “Δ R CMRgI (EOT-BL) Sensory Motor Cortex Right, Ave” value [1, 9]?
Answer: The value was −0.0005.

Question: And the “Δ R CMRgI (EOT-BL) Visual Cortex Left, Ave” value [1, 9]?
Answer: Its value is −0.0014.

Question: What about the “Δ R CMRgI (EOT-BL) Visual Cortex Right, Ave” value [1, 9] of the same compound?
Answer: Its value is −0.0033.

Question: What about the “Δ R CMRgI (EOT-BL) Sensory Motor Cortex Left, Ave” value [1, 10] of the same compound?
Answer: Its value is 0.0008.

Question: And the “Δ R CMRgI (EOT-BL) Sensory Motor Cortex Right, Ave” value [1, 10]?
Answer: The value was 0.0003.

Question: What about the “Δ R CMRgI (EOT-BL) Visual Cortex Left, Ave” value [1, 10] of the same compound?
Answer: Its value is −0.0032.

Question: What about the “Δ R CMRgI (EOT-BL) Visual Cortex Right, Ave” value [1, 10] of the same compound?
Answer: Its value is −0.0053.

Question: What about the “Δ R CMRgI (EOT-BL) Sensory Motor Cortex Left, Ave” value [1, 11] of the same compound?
Answer: The value was −0.0040.

Question: And the “Δ R CMRgI (EOT-BL) Sensory Motor Cortex Right, Ave” value [1, 11]?
Answer: The value was −0.0229.

Question: And the “Δ R CMRgI (EOT-BL) Visual Cortex Left, Ave” value [1, 11]?
Answer: Its value is −0.0314.

Question: What about the “Δ R CMRgI (EOT-BL) Visual Cortex Right, Ave” value [1, 11] of the same compound?
Answer: Its value is −0.0408.

Question: And the “Δ R CMRgI (EOT-BL) Sensory Motor Cortex Left, Ave” value [1, 12]?
Answer: Its value is 0.0213.

Question: What about the “Δ R CMRgI (EOT-BL) Sensory Motor Cortex Right, Ave” value [1, 12] of the same compound?
Answer: Its value is −0.0040.

Question: What about the “Δ R CMRgI (EOT-BL) Visual Cortex Left, Ave” value [1, 12] of the same compound?
Answer: Its value is −0.0158.

Question: What about the “Δ R CMRgI (EOT-BL) Visual Cortex Right, Ave” value [1, 12] of the same compound?
Answer: Its value is −0.0271.

Question: And the “Δ R CMRgI (EOT-BL) Sensory Motor Cortex Left, Ave” value [1, 13]?
Answer: The value was −0.0076.

Question: What about the “Δ R CMRgI (EOT-BL) Sensory Motor Cortex Right, Ave” value [1, 13] of the same compound?
Answer: The value was −0.0078.

Question: What about the “Δ R CMRgI (EOT-BL) Visual Cortex Left, Ave” value [1, 13] of the same compound?
Answer: Its value is −0.0775.

Question: And the “Δ R CMRgI (EOT-BL) Visual Cortex Right, Ave” value [1, 13]?
Answer: The value was −0.0730.

Question: What about the “Δ R CMRgI (EOT-BL) Sensory Motor Cortex Left, Ave” value [1, 14] of the same compound?
Answer: Its value is 0.0244.

Question: What about the “Δ R CMRgI (EOT-BL) Sensory Motor Cortex Right, Ave” value [1, 14] of the same compound?
Answer: Its value is 0.0251.

Question: And the “Δ R CMRgI (EOT-BL) Visual Cortex Left, Ave” value [1, 14]?
Answer: Its value is −0.0685.

Question: What about the “Δ R CMRgI (EOT-BL) Visual Cortex Right, Ave” value [1, 14] of the same compound?
Answer: Its value is −0.0604.

Question: What about the “dose dependence of effect on FDG-PET outcomes” value ([1]; 3 to 90 mg) of the same compound?
Answer: The value was “dose-dependent”.

Question: And the “effect on glucose metabolism in the brain” value ([1]; two week treatment)?
Answer: Its value is “altered the glucose metabolism in the brain”.

Question: What about the “Blood Brain Barrier penetration inferred from FDG-PET” value ([1]; voxel-wise (SPM) analysis, even at the lowest 3 mg) of the same compound?
Answer: The value was “penetrates the Blood Brain Barrier (BBB)”.

Question: And the “substrate for P-gp” value (P-glycoprotein (P-gp))?
Answer: The value was “not a substrate for P-gp”.

Question: What about the Papparent (Caco-2) of the same compound?
Answer: The Papparent was 114.4 ×10⁻⁶ cm/s.
